Columns and labels:
[1] = molecular target: T1, Tyrosine-protein phosphatase non-receptor type 1 (Homo sapiens, UniProt P18031); assay: Inhibition of PTP1B (unknown origin) expressed in Escherichia coli BL21(DE3) using pNPP as substrate preincubated for 15 mins followed by substrate addition measured after 10 mins
T1 sequence (P18031 whole entry): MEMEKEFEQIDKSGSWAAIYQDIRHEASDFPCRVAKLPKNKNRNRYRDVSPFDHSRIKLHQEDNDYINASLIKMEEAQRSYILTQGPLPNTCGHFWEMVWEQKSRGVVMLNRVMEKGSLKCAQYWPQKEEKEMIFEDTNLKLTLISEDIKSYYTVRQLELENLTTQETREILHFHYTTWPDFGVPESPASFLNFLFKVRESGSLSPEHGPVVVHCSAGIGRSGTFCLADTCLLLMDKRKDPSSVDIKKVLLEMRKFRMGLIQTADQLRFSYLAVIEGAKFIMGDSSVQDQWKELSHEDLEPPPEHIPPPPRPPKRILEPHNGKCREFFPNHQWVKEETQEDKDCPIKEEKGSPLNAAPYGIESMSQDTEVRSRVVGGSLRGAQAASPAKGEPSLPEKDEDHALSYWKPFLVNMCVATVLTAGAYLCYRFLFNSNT

[2] = molecular target: T2, Tyrosine-protein phosphatase non-receptor type 2 (Homo sapiens, UniProt P17706); assay: Inhibition of TCPTP (unknown origin) expressed in Escherichia coli BL21(DE3) using pNPP as substrate preincubated for 15 mins followed by substrate addition measured after 10 mins
T2 sequence (P17706 whole entry): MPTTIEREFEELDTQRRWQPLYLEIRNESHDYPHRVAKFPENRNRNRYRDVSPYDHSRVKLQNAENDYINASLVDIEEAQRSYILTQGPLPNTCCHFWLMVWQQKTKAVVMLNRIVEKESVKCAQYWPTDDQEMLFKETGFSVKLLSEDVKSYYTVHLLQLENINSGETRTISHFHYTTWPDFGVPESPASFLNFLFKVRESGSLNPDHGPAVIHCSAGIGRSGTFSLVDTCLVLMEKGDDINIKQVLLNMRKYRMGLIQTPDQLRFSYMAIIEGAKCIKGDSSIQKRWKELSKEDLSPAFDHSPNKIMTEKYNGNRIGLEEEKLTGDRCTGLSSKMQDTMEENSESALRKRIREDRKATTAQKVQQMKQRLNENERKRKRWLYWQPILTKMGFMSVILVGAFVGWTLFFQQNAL

[3] = molecular target: Tyrosine-protein phosphatase non-receptor type 6 (Homo sapiens, UniProt P29350); assay: Inhibition of SHP1 (unknown origin) expressed in Escherichia coli BL21(DE3) using pNPP as substrate preincubated for 15 mins followed by substrate addition measured after 10 mins
Tyrosine-protein phosphatase non-receptor type 6, sequence (P29350 whole entry): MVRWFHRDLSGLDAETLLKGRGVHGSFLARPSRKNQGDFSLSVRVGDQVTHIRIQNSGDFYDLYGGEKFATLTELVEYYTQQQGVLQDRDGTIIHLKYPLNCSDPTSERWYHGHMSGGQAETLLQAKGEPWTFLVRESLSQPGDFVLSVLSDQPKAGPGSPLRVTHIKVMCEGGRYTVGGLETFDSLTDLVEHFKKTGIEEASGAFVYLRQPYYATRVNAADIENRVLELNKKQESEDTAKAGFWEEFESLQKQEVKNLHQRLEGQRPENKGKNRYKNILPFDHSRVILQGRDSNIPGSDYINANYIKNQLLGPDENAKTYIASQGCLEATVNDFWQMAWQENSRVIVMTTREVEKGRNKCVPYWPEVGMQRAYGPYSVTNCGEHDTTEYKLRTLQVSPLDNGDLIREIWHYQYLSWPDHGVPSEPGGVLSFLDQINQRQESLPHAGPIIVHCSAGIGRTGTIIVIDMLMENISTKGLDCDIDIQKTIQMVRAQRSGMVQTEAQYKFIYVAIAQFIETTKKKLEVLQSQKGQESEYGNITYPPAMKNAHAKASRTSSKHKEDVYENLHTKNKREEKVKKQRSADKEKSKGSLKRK

IC50 [1]: 13.7 µM | IC50 [2]: 16.6 µM | IC50 [3]: 8.8 µM
Structure (SMILES): C/C(=C\Cc1c(O)cc(O)c2c1C[C@@H](C)OC2=O)CC/C=C(\C)CC[C@H](O)C(C)(C)O
